Laboratory results: patent EP4745135A1 (Gluetacs Therapeutics (Shanghai) Co., Ltd., priority 2023, dated 2025)

Tests used:
IKZF2 = target: T1, IKZF2 (Homo sapiens, UniProt Q96SW2+Q9UKS7); assay: Western blot, degradation of substrate protein in hPBMCs; assay type: cell-based
T1 construct: effects of the compounds of the present disclosure on the expression of target proteins in cells; endogenous in cells; host or cells: human PBMCs (Milecell Biotechnologies)

IKZF3 = target: T2, IKZF3 (Homo sapiens, UniProt Q96SW2+Q9UKT9); assay: as above; assay type: cell-based
T2 construct: effects of the compounds of the present disclosure on the expression of target proteins in cells; endogenous in cells; host or cells: human PBMCs (Milecell Biotechnologies)

IKZF1 = target: T3, IKZF1 (Homo sapiens, UniProt Q13422+Q96SW2); assay: as above; assay type: cell-based
T3 construct: effects of the compounds of the present disclosure on the expression of target proteins in cells; endogenous in cells; host or cells: human PBMCs (Milecell Biotechnologies)

WEE1 = target: T4, WEE1 (Homo sapiens, UniProt P30291+Q96SW2); assay: as above; assay type: cell-based
T4 construct: effects of the compounds of the present disclosure on the expression of target proteins in cells; endogenous in cells; host or cells: human PBMCs (Milecell Biotechnologies)

CK1α = target: T5, CK1α (Homo sapiens, UniProt P48729+Q96SW2); assay: as above; assay type: cell-based
T5 construct: effects of the compounds of the present disclosure on the expression of target proteins in cells; endogenous in cells; host or cells: human PBMCs (Milecell Biotechnologies)

GSPT1 = assay: as above; assay type: cell-based, Human
[1] = target: T6, human Cereblon WT GST-tagged protein (Homo sapiens, UniProt Q96SW2); assay: CRBN-binding affinity, HTRF (CEREBLON BINDING kit); details: for inhibition at 0.5 µM: read-out: Inhibition Rate at 0.5 µM (%); for inhibition at 2 µM: read-out: Inhibition Rate at 2 µM (%)
T6 construct: purchased CISBIO 64BDCRBNPEH

[2] = Western blot, 24 hours of compound treatment, compounds tested at 50 nM and 500 nM (concentration for the table not stated)
[3] = 24 hours treatment, compounds at 50 nM and 500 nM (concentration behind the class not stated)

T3 sequence (Q13422 whole entry): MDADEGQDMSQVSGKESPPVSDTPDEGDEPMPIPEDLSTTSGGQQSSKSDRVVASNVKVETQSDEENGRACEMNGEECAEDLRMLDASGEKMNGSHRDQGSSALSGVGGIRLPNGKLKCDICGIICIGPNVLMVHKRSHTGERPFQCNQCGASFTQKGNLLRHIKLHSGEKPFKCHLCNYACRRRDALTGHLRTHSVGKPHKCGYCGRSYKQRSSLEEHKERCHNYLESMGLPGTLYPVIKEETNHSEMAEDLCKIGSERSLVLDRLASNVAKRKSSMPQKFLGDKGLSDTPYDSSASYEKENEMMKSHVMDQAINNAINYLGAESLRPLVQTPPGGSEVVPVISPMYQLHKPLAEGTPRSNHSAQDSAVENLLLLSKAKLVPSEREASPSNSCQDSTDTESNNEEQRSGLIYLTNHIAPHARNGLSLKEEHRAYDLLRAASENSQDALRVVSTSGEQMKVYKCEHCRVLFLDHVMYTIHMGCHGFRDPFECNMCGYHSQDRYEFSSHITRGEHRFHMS
T3 sequence (Q96SW2 whole entry): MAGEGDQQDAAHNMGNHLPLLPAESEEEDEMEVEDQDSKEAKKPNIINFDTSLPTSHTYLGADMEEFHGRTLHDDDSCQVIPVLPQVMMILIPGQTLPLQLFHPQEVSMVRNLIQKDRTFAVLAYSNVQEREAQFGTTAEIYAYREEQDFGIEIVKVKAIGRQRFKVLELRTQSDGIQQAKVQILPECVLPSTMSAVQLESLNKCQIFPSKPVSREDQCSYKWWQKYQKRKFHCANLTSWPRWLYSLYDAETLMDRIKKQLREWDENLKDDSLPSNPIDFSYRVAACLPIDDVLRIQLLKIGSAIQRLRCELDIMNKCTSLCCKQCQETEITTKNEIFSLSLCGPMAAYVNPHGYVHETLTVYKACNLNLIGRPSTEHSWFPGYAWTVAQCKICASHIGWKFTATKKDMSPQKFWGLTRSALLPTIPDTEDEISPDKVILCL
T3 sequence (Q16531 whole entry partner): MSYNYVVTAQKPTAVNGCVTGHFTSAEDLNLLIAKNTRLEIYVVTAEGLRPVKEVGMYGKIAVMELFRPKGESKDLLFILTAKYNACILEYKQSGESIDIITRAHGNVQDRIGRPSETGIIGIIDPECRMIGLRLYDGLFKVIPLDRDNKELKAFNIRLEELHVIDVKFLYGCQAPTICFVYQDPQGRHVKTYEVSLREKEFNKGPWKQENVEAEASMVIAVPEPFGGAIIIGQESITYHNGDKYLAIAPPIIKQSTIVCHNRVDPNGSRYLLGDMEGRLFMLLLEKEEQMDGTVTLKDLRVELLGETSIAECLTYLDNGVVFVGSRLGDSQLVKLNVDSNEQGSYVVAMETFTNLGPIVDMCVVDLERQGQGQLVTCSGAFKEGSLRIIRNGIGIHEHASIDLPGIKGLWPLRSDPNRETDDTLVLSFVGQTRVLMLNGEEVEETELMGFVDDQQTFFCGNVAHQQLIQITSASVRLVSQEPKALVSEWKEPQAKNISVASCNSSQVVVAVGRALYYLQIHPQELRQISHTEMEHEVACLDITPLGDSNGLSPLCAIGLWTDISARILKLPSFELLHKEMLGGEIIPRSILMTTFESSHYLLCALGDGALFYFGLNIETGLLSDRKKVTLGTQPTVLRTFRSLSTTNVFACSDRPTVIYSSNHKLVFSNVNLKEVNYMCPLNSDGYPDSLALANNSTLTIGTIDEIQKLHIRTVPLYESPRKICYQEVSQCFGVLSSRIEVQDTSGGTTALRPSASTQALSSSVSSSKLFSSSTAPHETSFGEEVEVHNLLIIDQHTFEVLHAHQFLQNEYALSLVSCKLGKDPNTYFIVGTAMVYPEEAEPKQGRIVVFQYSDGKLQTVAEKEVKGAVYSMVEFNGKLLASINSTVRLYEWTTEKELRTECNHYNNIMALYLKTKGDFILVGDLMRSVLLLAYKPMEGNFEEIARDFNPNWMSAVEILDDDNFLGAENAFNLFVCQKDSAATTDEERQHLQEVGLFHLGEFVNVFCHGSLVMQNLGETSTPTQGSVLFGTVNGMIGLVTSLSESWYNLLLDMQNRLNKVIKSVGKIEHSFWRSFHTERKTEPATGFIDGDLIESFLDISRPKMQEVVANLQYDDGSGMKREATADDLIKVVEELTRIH
T2 sequence (Q9UKT9 whole entry): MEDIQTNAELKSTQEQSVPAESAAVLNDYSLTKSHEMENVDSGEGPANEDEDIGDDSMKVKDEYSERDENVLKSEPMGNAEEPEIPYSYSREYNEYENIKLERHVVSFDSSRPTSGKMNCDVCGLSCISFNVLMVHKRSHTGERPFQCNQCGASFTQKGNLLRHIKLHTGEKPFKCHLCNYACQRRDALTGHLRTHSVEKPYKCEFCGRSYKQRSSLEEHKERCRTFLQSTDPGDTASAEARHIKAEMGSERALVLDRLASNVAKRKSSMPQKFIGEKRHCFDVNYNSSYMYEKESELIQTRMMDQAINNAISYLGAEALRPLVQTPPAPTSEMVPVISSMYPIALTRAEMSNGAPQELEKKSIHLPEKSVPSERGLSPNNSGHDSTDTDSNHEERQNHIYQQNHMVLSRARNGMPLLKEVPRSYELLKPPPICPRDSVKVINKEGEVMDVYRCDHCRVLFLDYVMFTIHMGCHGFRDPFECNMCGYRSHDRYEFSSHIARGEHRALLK
T2 sequence (Q96SW2 whole entry): as the sequence (Q96SW2 whole entry) above
T2 sequence (Q16531 whole entry partner): as the sequence (Q16531 whole entry partner) above
T4 sequence (P30291 whole entry): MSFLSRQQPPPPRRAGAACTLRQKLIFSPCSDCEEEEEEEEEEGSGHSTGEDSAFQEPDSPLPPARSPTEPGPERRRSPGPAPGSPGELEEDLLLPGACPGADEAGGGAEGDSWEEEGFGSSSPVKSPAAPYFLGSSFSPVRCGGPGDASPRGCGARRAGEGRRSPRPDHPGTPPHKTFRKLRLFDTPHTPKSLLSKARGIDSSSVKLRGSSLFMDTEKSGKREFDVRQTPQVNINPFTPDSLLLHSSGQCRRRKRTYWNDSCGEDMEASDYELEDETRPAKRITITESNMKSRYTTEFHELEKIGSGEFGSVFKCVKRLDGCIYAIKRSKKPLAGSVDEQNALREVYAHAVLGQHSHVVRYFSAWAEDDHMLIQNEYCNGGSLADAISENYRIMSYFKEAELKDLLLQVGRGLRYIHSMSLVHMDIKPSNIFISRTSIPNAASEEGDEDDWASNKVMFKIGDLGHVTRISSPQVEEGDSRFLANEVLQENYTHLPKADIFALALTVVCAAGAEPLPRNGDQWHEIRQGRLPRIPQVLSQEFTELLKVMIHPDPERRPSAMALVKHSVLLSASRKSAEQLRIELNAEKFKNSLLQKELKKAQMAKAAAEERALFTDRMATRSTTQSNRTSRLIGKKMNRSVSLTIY
T4 sequence (Q96SW2 whole entry): as the sequence (Q96SW2 whole entry) above
T4 sequence (Q16531 whole entry partner): as the sequence (Q16531 whole entry partner) above
T5 sequence (P48729 whole entry): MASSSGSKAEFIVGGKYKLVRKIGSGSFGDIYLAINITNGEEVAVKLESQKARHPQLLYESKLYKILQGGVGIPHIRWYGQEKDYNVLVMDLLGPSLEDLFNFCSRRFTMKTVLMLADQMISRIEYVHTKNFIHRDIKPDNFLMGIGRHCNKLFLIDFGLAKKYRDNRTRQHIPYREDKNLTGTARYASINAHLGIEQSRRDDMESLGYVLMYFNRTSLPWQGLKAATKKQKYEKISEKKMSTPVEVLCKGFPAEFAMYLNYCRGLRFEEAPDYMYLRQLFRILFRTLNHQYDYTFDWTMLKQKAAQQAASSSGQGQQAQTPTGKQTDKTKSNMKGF
T5 sequence (Q96SW2 whole entry): as the sequence (Q96SW2 whole entry) above
T5 sequence (Q16531 whole entry partner): as the sequence (Q16531 whole entry partner) above
T6 sequence (Q96SW2 whole entry): as the sequence (Q96SW2 whole entry) above
T1 sequence (Q9UKS7 whole entry): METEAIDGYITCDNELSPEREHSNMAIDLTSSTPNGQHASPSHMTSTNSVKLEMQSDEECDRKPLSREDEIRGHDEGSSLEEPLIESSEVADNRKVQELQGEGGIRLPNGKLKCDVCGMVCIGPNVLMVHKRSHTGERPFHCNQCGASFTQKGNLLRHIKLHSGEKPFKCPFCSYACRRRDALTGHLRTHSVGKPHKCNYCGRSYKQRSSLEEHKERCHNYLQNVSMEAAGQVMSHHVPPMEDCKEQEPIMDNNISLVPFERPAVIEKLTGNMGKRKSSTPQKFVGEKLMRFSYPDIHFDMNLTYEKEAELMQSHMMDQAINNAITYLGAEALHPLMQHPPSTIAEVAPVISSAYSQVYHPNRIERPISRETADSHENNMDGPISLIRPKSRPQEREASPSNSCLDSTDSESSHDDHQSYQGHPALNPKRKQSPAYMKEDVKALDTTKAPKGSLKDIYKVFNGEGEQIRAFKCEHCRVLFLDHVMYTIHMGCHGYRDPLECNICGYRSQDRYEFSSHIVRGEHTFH
T1 sequence (Q96SW2 whole entry): as the sequence (Q96SW2 whole entry) above
T1 sequence (Q16531 whole entry partner): as the sequence (Q16531 whole entry partner) above

| SMILES | IKZF2 substrate protein remaining % (IKZF2; [2]) | IKZF3 substrate protein remaining % (IKZF3; [2]) | IKZF 1 substrate protein remaining % (IKZF1; [2]) | Wee1 substrate protein remaining % (WEE1; [2]) | CK1α substrate protein remaining % (CK1α; [2]) | GSPT1 substrate protein remaining % (GSPT1; [2]) | inhibition at 0.5 µM [1] [%] | inhibition at 2 µM [1] [%] | IKZF2 substrate protein remaining % (IKZF2; [3]) | IKZF3 substrate protein remaining % (IKZF3; [3]) | IKZF 1 substrate protein remaining % (IKZF1; [3]) | Wee1 substrate protein remaining % (WEE1; [3]) | CK1α substrate protein remaining % (CK1α; [3]) | GSPT1 substrate protein remaining % (GSPT1; [3]) |
| --- | --- | --- | --- | --- | --- | --- | --- | --- | --- | --- | --- | --- | --- | --- |
| C[C@@H]1CN(C(c2ccccc2)c2ccccc2)CCN1Cc1cccc2c1CN(C1CCC(=O)NC1=O)C2=S (stereo partly drawn) [GT-08232, 3-(4-(((R)-4-benzhydryl-2-methylpiperazin-1-yl)methyl)-1-thioxoisoindolin-2-yl)piperidine-2,6-dione] | A (0% ≤ substrate protein remaining % ≤ 80%) | B (80%< substrate protein remaining %≤ 100%) | B (80%< substrate protein remaining %≤ 100%) | A (0% ≤ substrate protein remaining % ≤ 80%) | B (80%< substrate protein remaining %≤ 100%) | A (0% ≤ substrate protein remaining % ≤ 80%) | 40 to 53 | 80 to 100 | – | – | – | – | – | – |
| O=C1CCC(N2Cc3cc(CN4C[C@H]5C[C@@H]4CN5C(c4ccccc4)c4ccccc4)ccc3C2=S)C(=O)N1 (stereo partly drawn) [GT-07740, 3-(5-(((1R,4R)-5-benzhydryl-2,5-diazabicyclo[2.2.1]heptan-2-yl)methyl)-1-thioxoisoindolin-2-yl)piperidine-2,6-dione] | A (0% ≤ substrate protein remaining % ≤ 80%) | B (80%< substrate protein remaining %≤ 100%) | A (0% ≤ substrate protein remaining % ≤ 80%) | B (80%< substrate protein remaining %≤ 100%) | B (80%< substrate protein remaining %≤ 100%) | B (80%< substrate protein remaining %≤ 100%) | 53 to 60 | 80 to 100 | – | – | – | – | – | – |
| O=C1CCC(N2Cc3c(CN4CCN(c5cccc(F)n5)CC4)cccc3C2=S)C(=O)N1 (stereo not drawn) [GT-08698, 3-(4-((4-(6-fluoropyridin-2-yl)piperazin-1-yl)methyl)-1-thioxoisoindolin-2-yl)piperidine-2,6-dione] | B (80%< substrate protein remaining %≤ 100%) | B (80%< substrate protein remaining %≤ 100%) | B (80%< substrate protein remaining %≤ 100%) | A (0% ≤ substrate protein remaining % ≤ 80%) | B (80%< substrate protein remaining %≤ 100%) | A (0% ≤ substrate protein remaining % ≤ 80%) | 60 to 80 | 80 to 100 | – | – | – | – | – | – |
| O=C1CCC(N2Cc3cc(CN4C5CC4CN(C(c4ccccc4)c4ccccc4)C5)ccc3C2=S)C(=O)N1 (stereo not drawn) [GT-07738, 3-(5-((3-benzhydryl-3,6-diazabicyclo[3.1.1]heptan-6-yl)methyl)-1-thioxoisoindolin-2-yl)piperidine-2,6-dione] | A (0% ≤ substrate protein remaining % ≤ 80%) | B (80%< substrate protein remaining %≤ 100%) | A (0% ≤ substrate protein remaining % ≤ 80%) | B (80%< substrate protein remaining %≤ 100%) | B (80%< substrate protein remaining %≤ 100%) | A (0% ≤ substrate protein remaining % ≤ 80%) | 53 to 60 | 80 to 100 | – | – | – | – | – | – |
| Cc1nc(C2CCN(Cc3ccc4c(c3)CN(C3CCC(=O)NC3=O)C4=S)CC2)c2c3c(sc2n1)CCCC3 (stereo not drawn) [GT-09310, 3-(5-((4-(2-methyl-5,6,7,8-tetrahydrobenzo[4,5]thieno[2,3-d]pyrimidin-4-yl)piperidin-1-yl)methyl)-1-thioxoisoindolin-2-yl)piperidine-2,6-dione] | – | – | – | – | – | – | 53 to 60 | 80 to 100 | B (80%< substrate protein remaining %≤ 100%) | A (0% ≤ substrate protein remaining % ≤ 80%) | B (80%< substrate protein remaining %≤ 100%) | B (80%< substrate protein remaining %≤ 100%) | B (80%< substrate protein remaining %≤ 100%) | A (0% ≤ substrate protein remaining % ≤ 80%) |
| O=C1CCC(N2Cc3cc(CN4CC5CCC4CN5C(c4ccccc4)c4ccccc4)ccc3C2=S)C(=O)N1 (stereo not drawn) [GT-07847, 3-(5-((5-benzhydryl-2,5-diazabicyclo[2.2.2]octan-2-yl)methyl)-1-thioxoisoindolin-2-yl)piperidine-2,6-dione] | A (0% ≤ substrate protein remaining % ≤ 80%) | A (0% ≤ substrate protein remaining % ≤ 80%) | B (80%< substrate protein remaining %≤ 100%) | A (0% ≤ substrate protein remaining % ≤ 80%) | B (80%< substrate protein remaining %≤ 100%) | A (0% ≤ substrate protein remaining % ≤ 80%) | 53 to 60 | 80 to 100 | – | – | – | – | – | – |
| O=C1CCC(N2Cc3cc(CN4CCN(c5nsc6cc(F)ccc56)CC4)ccc3C2=S)C(=O)N1 (stereo not drawn) [GT-09259, 3-(5-((4-(6-fluorobenzo[d]isothiazol-3-yl)piperazin-1-yl)methyl)-1-thioxoisoindolin-2-yl)piperidine-2,6-dione] | – | – | – | – | – | – | 53 to 60 | 80 to 100 | B (80%< substrate protein remaining %≤ 100%) | B (80%< substrate protein remaining %≤ 100%) | B (80%< substrate protein remaining %≤ 100%) | B (80%< substrate protein remaining %≤ 100%) | B (80%< substrate protein remaining %≤ 100%) | A (0% ≤ substrate protein remaining % ≤ 80%) |
| O=C1CCC(N2Cc3cc(CN4CCN(C(c5ccc(Cl)cc5)c5ccc(Cl)cc5)CC4)ccc3C2=S)C(=O)N1 (stereo not drawn) [GT-07737, 3-(5-((4-(bis(4-chlorophenyl)methyl)piperazin-1-yl)methyl)-1-thioxoisoindolin-2-yl)piperidine-2,6-dione] | A (0% ≤ substrate protein remaining % ≤ 80%) | A (0% ≤ substrate protein remaining % ≤ 80%) | A (0% ≤ substrate protein remaining % ≤ 80%) | B (80%< substrate protein remaining %≤ 100%) | B (80%< substrate protein remaining %≤ 100%) | A (0% ≤ substrate protein remaining % ≤ 80%) | 30 to 40 | 53 to 60 | – | – | – | – | – | – |
| Cc1cscc1C1CCN(Cc2cccc3c2CN(C2CCC(=O)NC2=O)C3=S)CC1 (stereo not drawn) [GT-08309, 3-(4-((4-(4-methylthiophen-3-yl)piperidin-1-yl)methyl)-1-thioxoisoindolin-2-yl)piperidine-2,6-dione] | – | – | – | – | – | – | 53 to 60 | 80 to 100 | B (80%< substrate protein remaining %≤ 100%) | B (80%< substrate protein remaining %≤ 100%) | B (80%< substrate protein remaining %≤ 100%) | A (0% ≤ substrate protein remaining % ≤ 80%) | B (80%< substrate protein remaining %≤ 100%) | B (80%< substrate protein remaining %≤ 100%) |
| O=C1CCC(N2Cc3c(CN4CCC(c5cccc(F)c5F)CC4)cccc3C2=S)C(=O)N1 (stereo not drawn) [GT-08322, 3-(4-((4-(2,3-difluorophenyl)piperidin-1-yl)methyl)-1-thioxoisoindolin-2-yl)piperidine-2,6-dione] | – | – | – | – | – | – | 30 to 40 | 53 to 60 | A (0% ≤ substrate protein remaining % ≤ 80%) | B (80%< substrate protein remaining %≤ 100%) | B (80%< substrate protein remaining %≤ 100%) | A (0% ≤ substrate protein remaining % ≤ 80%) | A (0% ≤ substrate protein remaining % ≤ 80%) | A (0% ≤ substrate protein remaining % ≤ 80%) |
| O=C1CCC(N2Cc3c(CN4CCN(c5nc(N6CCOCC6)c6sccc6n5)CC4)cccc3C2=S)C(=O)N1 (stereo not drawn) [GT-09033, 3-(4-((4-(4-morpholinothieno[3,2-d]pyrimidin-2-yl)piperazin-1-yl)methyl)-1-thioxoisoindolin-2-yl)piperidine-2,6-dione] | – | – | – | – | – | – | 60 to 80 | 80 to 100 | B (80%< substrate protein remaining %≤ 100%) | B (80%< substrate protein remaining %≤ 100%) | B (80%< substrate protein remaining %≤ 100%) | A (0% ≤ substrate protein remaining % ≤ 80%) | B (80%< substrate protein remaining %≤ 100%) | B (80%< substrate protein remaining %≤ 100%) |
| O=C1CCC(N2Cc3cc(CN4CC5CCC(C4)N5c4cccc(Cl)c4Cl)ccc3C2=S)C(=O)N1 (stereo not drawn) [GT-08479, 3-(5-((8-(2,3-dichlorophenyl)-3,8-diazabicyclo[3.2.1]octan-3-yl)methyl)-1-thioxoisoindolin-2-yl)piperidine-2,6-dione] | B (80%< substrate protein remaining %≤ 100%) | B (80%< substrate protein remaining %≤ 100%) | B (80%< substrate protein remaining %≤ 100%) | B (80%< substrate protein remaining %≤ 100%) | B (80%< substrate protein remaining %≤ 100%) | A (0% ≤ substrate protein remaining % ≤ 80%) | 40 to 53 | 60 to 80 | – | – | – | – | – | – |
